From BigSolDB 2.1

CC(=O)Oc1ccccc1C(=O)Nc1ncc([N+](=O)[O-])s1
solubility (mole fraction)
Conditions	273.15 K	278.15 K	283.15 K	288.15 K	293.15 K	298.15 K	303.15 K	308.15 K	313.15 K
in 1,4-dioxane	–	–	–	0.0102	0.0131	0.0167	0.0207	0.0254	0.0311
in 2-butanone	0.00334	0.00496	0.0066	0.00859	0.0107	0.0131	0.0158	0.0191	0.0229
in DMF	0.0637	0.0672	0.0711	0.0751	0.0797	0.0846	0.0901	0.097	0.104
in NMP	0.0878	0.09	0.0925	0.0953	0.098	0.101	0.105	0.109	0.113
in acetonitrile	0.00082	0.000924	0.00103	0.00115	0.00127	0.00141	0.00158	0.00178	0.00201
in ethanol	0.000117	0.000147	0.000179	0.000211	0.000246	0.000285	0.000331	0.000385	0.00045
in ethyl acetate	0.00185	0.00206	0.00229	0.00252	0.00276	0.003	0.0033	0.00362	0.00399
in isopropanol	0.000162	0.000202	0.000243	0.000287	0.000333	0.000383	0.000436	0.000502	0.00058
in methanol	0.000103	0.000126	0.00015	0.000177	0.000202	0.00023	0.000261	0.000298	0.000334
in n-butanol	0.000176	0.000214	0.000257	0.000303	0.000354	0.000408	0.000471	0.000541	0.000617
in n-propanol	0.000138	0.000173	0.000211	0.00025	0.00029	0.000336	0.00039	0.000453	0.000525
in toluene	7.6e-05	9.9e-05	0.000123	0.000146	0.00017	0.000197	0.000225	0.000258	0.000291
